Results reported in US10294202B2, “Pyrrolidinones as herbicides” (FMC Corporation, priority 2013, dated 2019).

What was measured:
barnyardgrass [1] = test: Test A pre-/postemergence herbicide test; format: in vivo, Echinochloa crus-galli
Method in brief: (§1)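 Approximately 10 days after treatment in the greenhouse, plants were compared with untreated controls and given a 0–100 visual injury rating. Applications: preemergence directed soil spray; postemergence on 2–10 cm plants at the one- to two-leaf stage.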

kochia = test: Test A pre-/postemergence herbicide test; format: in vivo, Kochia scoparia; conditions: for Plant response rating, Kochia: 0 to 100 scale
Method in brief: as §1

ragweed = test: Test A pre-/postemergence herbicide test; format: in vivo, Ambrosia elatior; conditions: for Plant response rating, Ragweed: 0 to 100 scale
Method in brief: as §1

ryegrass, Italian = test: Test A pre-/postemergence herbicide test; format: in vivo, Lolium multiflorum; conditions: for Plant response rating, Ryegrass, Italian: 0 to 100 scale
Method in brief: as §1

giant foxtail = test: Test A pre-/postemergence herbicide test; format: in vivo, Setaria faberii; conditions: for Plant response rating, Foxtail, Giant: 0 to 100 scale
Method in brief: as §1

pigweed = test: Test A pre-/postemergence herbicide test; format: in vivo, Amaranthus retroflexus; conditions: for Plant response rating, Pigweed: 0 to 100 scale
Method in brief: as §1

wheat = test: Test A pre-/postemergence herbicide test; format: in vivo, Triticum aestivum; conditions: Postemergence; for Plant response rating, Wheat: 125 g ai/ha, 0 to 100 scale, 0 no effect, 100 complete control; for Wheat plant response rating (0 to 100 scale, 0 is no effect, 100 is complete control): 500 g ai/ha
Method in brief: as §1

corn = test: Test A pre-/postemergence herbicide test; format: in vivo, Zea mays; conditions: Postemergence; for Plant response rating, Corn: 125 g ai/ha, 0 to 100 scale, 0 no effect, 100 complete control; for Corn plant response rating (0 to 100 scale, 0 is no effect, 100 is complete control): 500 g ai/ha
Method in brief: as §1

blackgrass = test: Test A postemergence herbicide test; format: in vivo, Alopecurus myosuroides; conditions: for Plant response rating, Blackgrass: 125 g ai/ha, 0 to 100 scale, 0 no effect, 100 complete control; for Blackgrass plant response rating (0 to 100 scale, 0 is no effect, 100 is complete control): 500 g ai/ha
Method in brief: (§2)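 Ratings compare treated with untreated plants roughly 10 days after a postemergence application made at the one- to two-leaf stage. Scoring uses 0–100, where 0 means no effect and 100 complete control.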

galium = test: Test A postemergence herbicide test; format: in vivo, Galium aparine; conditions: for Plant response rating, Galium: 125 g ai/ha, 0 to 100 scale, 0 no effect, 100 complete control; for Galium plant response rating (0 to 100 scale, 0 is no effect, 100 is complete control): 500 g ai/ha
Method in brief: as §2

rice = test: Test B flooded paddy test; format: in vivo, Oryza sativa; conditions: 500 g ai/ha, Flood; scale of 0 to 100 where 0 is no effect and 100 is complete control
Method in brief: (§3)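 Paddy-water application at a 3 cm flood, young plants having two leaves. Water level maintained; greenhouse, 13–15 days; visual 0–100 control rating.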

sedge, umbrella = test: Test B flooded paddy test; format: in vivo, Cyperus difformis; conditions: 500 g ai/ha, Flood; scale of 0 to 100 where 0 is no effect and 100 is complete control
Method in brief: as §3

ducksalad = test: Test B flooded paddy test; format: in vivo, Heteranthera limosa; conditions: 500 g ai/ha, Flood; scale of 0 to 100 where 0 is no effect and 100 is complete control
Method in brief: as §3

barnyardgrass [2] = test: Test B flooded paddy test; format: in vivo, Echinochloa crus-galli; conditions: 500 g ai/ha, Flood; scale of 0 to 100 where 0 is no effect and 100 is complete control
Method in brief: as §3

[3] = 125 g ai/ha, visual rating, 0 to 100 scale, 0 no effect, 100 complete control, approximately 10 days, preemergence
[4] = Postemergence, 125 g ai/ha, 0 to 100 scale, 0 no effect, 100 complete control
[5] = preemergence, 500 g ai/ha, 0 to 100 scale (0 no effect, 100 complete control)
[6] = 125 g ai/ha, visual rating, 0 no effect, 100 complete control, approximately 10 days, preemergence
[7] = Postemergence, 125 g ai/ha, 0 no effect, 100 complete control

Row | SMILES | Plant response rating, Barnyardgrass (barnyardgrass [1]; [3]) | Plant response rating, Barnyardgrass (barnyardgrass [1]; [4]) | Barnyardgrass plant response rating (0 to 100 scale, 0 is no effect, 100 is complete control) (barnyardgrass [1]; Postemergence, 500 g ai/ha) | Plant response rating, Barnyardgrass (barnyardgrass [1]; [5]) | Plant response rating, Kochia (kochia; [6]) | Plant response rating, Kochia (kochia; [7]) | Kochia plant response rating (0 to 100 scale, 0 is no effect, 100 is complete control) (kochia; Postemergence, 500 g ai/ha) | Plant response rating, Kochia (kochia; preemergence, 500 g ai/ha) | Plant response rating, Ragweed (ragweed; [6]) | Plant response rating, Ragweed (ragweed; [7]) | Ragweed plant response rating (0 to 100 scale, 0 is no effect, 100 is complete control) (ragweed; Postemergence, 500 g ai/ha) | Plant response rating, Ragweed (ragweed; preemergence, 500 g ai/ha) | Plant response rating, Ryegrass, Italian (ryegrass, Italian; [6]) | Plant response rating, Ryegrass, Italian (ryegrass, Italian; [7]) | Ryegrass, Italian plant response rating (0 to 100 scale, 0 is no effect, 100 is complete control) (ryegrass, Italian; Postemergence, 500 g ai/ha) | Plant response rating, Ryegrass, Italian (ryegrass, Italian; preemergence, 500 g ai/ha) | Plant response rating, Foxtail, Giant (giant foxtail; [6]) | Plant response rating, Foxtail, Giant (giant foxtail; [7]) | Foxtail, Giant plant response rating (0 to 100 scale, 0 is no effect, 100 is complete control) (giant foxtail; Postemergence, 500 g ai/ha) | Plant response rating, Foxtail, Giant (giant foxtail; preemergence, 500 g ai/ha) | further results
1 | Cc1cc(C2CNC(=O)C2C(=O)Nc2ccccc2F)ccc1F (racemic) [Compound 139] | 70 | 80 | 90 | 90 | 0 | 0 | 0 | 30 | 0 | 0 | 0 | 0 | 0 | 0 | 0 | 0 | 50 | 30 | 30 | 90 | Plant response rating, Pigweed (pigweed; [6]): 0; Plant response rating, Pigweed (pigweed; [7]): 0; Pigweed plant response rating (0 to 100 scale, 0 is no effect, 100 is complete control) (pigweed; Postemergence, 500 g ai/ha): 0; Plant response rating, Pigweed (pigweed; preemergence, 500 g ai/ha): 20; Plant response rating, Wheat (wheat): 0; Wheat plant response rating (0 to 100 scale, 0 is no effect, 100 is complete control) (wheat): 0; Plant response rating, Corn (corn): 0; Corn plant response rating (0 to 100 scale, 0 is no effect, 100 is complete control) (corn): 0; Plant response rating, Blackgrass (blackgrass): 0; Blackgrass plant response rating (0 to 100 scale, 0 is no effect, 100 is complete control) (blackgrass): 20; Plant response rating, Galium (galium): 0; Galium plant response rating (0 to 100 scale, 0 is no effect, 100 is complete control) (galium): 30; Plant response rating, Rice (rice): 0; Plant response rating, Sedge, Umbrella (sedge, umbrella): 0; Plant response rating, Ducksalad (ducksalad): 100; Plant response rating, Barnyardgrass (barnyardgrass [2]): 60
2 | Cc1cc(C2CNC(=O)C2C(=O)Nc2ccc(F)cc2F)ccc1F (racemic) [Compound 140] | 80 | 70 | 80 | 90 | 0 | 0 | 0 | 0 | 0 | 0 | 0 | 0 | 0 | 0 | 0 | 0 | 50 | 0 | 50 | 90 | Plant response rating, Pigweed (pigweed; [6]): 0; Plant response rating, Pigweed (pigweed; [7]): 0; Pigweed plant response rating (0 to 100 scale, 0 is no effect, 100 is complete control) (pigweed; Postemergence, 500 g ai/ha): 0; Plant response rating, Pigweed (pigweed; preemergence, 500 g ai/ha): 0; Plant response rating, Wheat (wheat): 0; Wheat plant response rating (0 to 100 scale, 0 is no effect, 100 is complete control) (wheat): 0; Plant response rating, Corn (corn): 0; Corn plant response rating (0 to 100 scale, 0 is no effect, 100 is complete control) (corn): 0; Plant response rating, Blackgrass (blackgrass): 0; Blackgrass plant response rating (0 to 100 scale, 0 is no effect, 100 is complete control) (blackgrass): 20; Plant response rating, Galium (galium): 0; Galium plant response rating (0 to 100 scale, 0 is no effect, 100 is complete control) (galium): 30; Plant response rating, Rice (rice): 0; Plant response rating, Sedge, Umbrella (sedge, umbrella): 0; Plant response rating, Ducksalad (ducksalad): 100; Plant response rating, Barnyardgrass (barnyardgrass [2]): 70
